Assay results as given in paper PMC5974765, “Targets Fishing and Identification of Calenduloside E as Hsp90AB1: Design, Synthesis, and Evaluation of Clickable Activity-Based Probe” (Frontiers in Pharmacology, 2018).

Assays:
[1] = molecular target: T1, Hsp90AB1 (Homo sapiens, UniProt P08238); assay: SPR (Biacore, CM5 chip with immobilized protein); also competes with CE-P in HUVEC lysate pull-down; assay type: binding
T1 construct: recombinant human Hsp90AB1 protein

[2] = molecular target: T1, Hsp90AB1; assay: SPR (Biacore, CM5 chip with immobilized protein); also click pull-down of recombinant protein and from HUVEC lysate; assay type: binding

T1 sequence (P08238 2-724): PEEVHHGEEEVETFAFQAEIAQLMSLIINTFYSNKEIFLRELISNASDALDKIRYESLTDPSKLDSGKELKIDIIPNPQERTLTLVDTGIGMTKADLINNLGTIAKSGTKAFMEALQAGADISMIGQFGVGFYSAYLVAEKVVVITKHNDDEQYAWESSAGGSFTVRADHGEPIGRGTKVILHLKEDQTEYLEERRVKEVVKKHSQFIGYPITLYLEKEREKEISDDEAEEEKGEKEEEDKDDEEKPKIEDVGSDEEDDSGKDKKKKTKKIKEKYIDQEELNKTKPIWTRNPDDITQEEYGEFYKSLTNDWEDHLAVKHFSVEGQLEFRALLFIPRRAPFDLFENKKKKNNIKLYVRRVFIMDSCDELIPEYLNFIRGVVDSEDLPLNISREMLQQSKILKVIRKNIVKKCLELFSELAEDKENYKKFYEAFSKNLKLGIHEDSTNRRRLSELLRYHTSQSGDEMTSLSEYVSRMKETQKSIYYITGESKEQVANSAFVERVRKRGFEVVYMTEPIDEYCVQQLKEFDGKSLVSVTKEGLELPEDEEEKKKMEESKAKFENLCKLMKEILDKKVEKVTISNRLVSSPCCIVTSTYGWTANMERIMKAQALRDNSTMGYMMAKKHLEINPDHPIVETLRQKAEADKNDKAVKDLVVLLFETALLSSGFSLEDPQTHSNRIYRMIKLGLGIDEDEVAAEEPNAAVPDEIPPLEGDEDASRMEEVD

Kd [1] [µM]	Kd [2] [µM]	SMILES
2.34		CC1(C)CC[C@]2(C(=O)O)CC[C@]3(C)C(=CC[C@@H]4[C@@]5(C)CC[C@H](O[C@@H]6O[C@H](C(=O)O)[C@@H](O)[C@H](O)[C@H]6O)C(C)(C)[C@@H]5CC[C@]43C)[C@@H]2C1 [CE, Calenduloside E]
	23.4	C#CCNC(=O)C12CCC(C)(C)C[C@H]1C1=CC[C@@H]3[C@@]4(C)CC[C@H](O[C@@H]5O[C@H](C(=O)O)[C@@H](O)[C@H](O)[C@H]5O)C(C)(C)[C@@H]4CC[C@@]3(C)[C@]1(C)CC2 (some centres unmarked) [VI, CE-P]
